Test results reported in patent US20240101576A1, “HETEROCYCLIC INHIBITORS OF EGFR AND/OR HER2, FOR USE IN THE TREATMENT OF CANCER” (Scorpion Therapeutics, Inc., priority 2020, published 2024).

What was measured:
Assay type in all cases: cell-based
EGFR L858R (Ba/F3 cells) = target: T1, EGFR L858R (Ba/F3 cells) (Homo sapiens, UniProt P00533, L858R); test: Inhibitor activity on EGFR-dependent cell growth (CellTiter-Glo, 72 h), Ba/F3 EGFR L858R; conditions: read-out: BaF3 L858R IC50
T1 construct: expressed in transfected cells; host or cells: Ba/F3 (murine pro-B cells), retroviral transduction, puromycin selection, IL3-independent pool
Text: (§1) Example A. Inhibitor Activity on EGFR-Dependent Cell Growth
(§2) Cell lines are generated by transducing Ba/F3 cells with retroviruses containing vectors with EGFR WT, EGFR L858R, EGFR exon 19del, EGFR L858R/C797S, EGFR exon 20 NPG Ins D770_N771, EGFR exon 20 ASV Ins V769_D770, EGFR exon 20 SVD Ins D770_N771, or EGFR exon 20 FQEA Ins A763_V764 genes and a puromycin selection marker. Transduced cells are selected with puromycin for 7 days and are then be transferred into culture media without Interleukin 3 (IL3). EGFR WT cells are maintained with supplemental EGF. Surviving cells are confirmed to express EGFR by Western blot and maintained as a pool. The IC50 date were included in Table 6 and Table 7.
(§3) 1.1 Cells are harvested from flask into cell culture medium and the cell number counted.
(§4) 1.2 Cells are diluted with culture medium to the desired density and 40 μL of cell suspension is added into each well of 384-well cell culture plate and the seeding density is 800 (FQEA, exon 19del), 600 (WT, NPG, L858R/C797S), or 400 (ASV, SVD, L858R) cells/well.
(§5) 2 Compound Preparation and Treatment
(§6) 2.1 Test compounds are dissolved to 10 mM in a DMSO stock solution. 45 μL of stock solution is transferred to a 384 polypropylene plate (pp-plate). Perform 3-fold, 10-point dilution via transferring 15 μL compound into 30 μL DMSO using a TECAN (EVO200) liquid handler.
(§7) 2.2 Spin plates at room temperature at 1,000 RPM for 1 minute.
(§8) 2.3 Transfer 120 nL of diluted compound from compound source plate into the cell plate.
(§9) 2.4 After compound treatment for 72 hours, perform CTG detection for compound treatment plates as described in “Detection” section.
(§10) 3.1 Plates are removed from incubators and equilibrated at room temperature for 15 minutes.
(§11) 3.2 Thaw the CellTiter Glo reagents and allow to equilibrate to room temperature before the experiment.
(§12) 3.3 Add 40 μL of CellTiter-Glo reagent into each well (at 1:1 to culture medium). Then place the plates at room temperature for 30 min followed by reading on EnVision.
(§13) 4.1 Inhibition activity is calculated following the formula below:
(§14) % Inhibition=100×(LumHC−LumSample)/(LumHC−LumLC) • where HC is obtained from cells treated with 0.1% DMSO only; and LC is obtained from culture medium only.
(§15) 4.2 2. Calculate the IC50 by fitting the Curve using Xlfit (v5.3.1.3), equation 201.
(§16) Y=Bottom+(Top−Bottom)/(1+10^((Log IC50−X)*HillSlope))

[1] = target: EGFR exon 19del (Ba/F3 cells) (Homo sapiens, UniProt P00533); test: Inhibitor activity on EGFR-dependent cell growth (CellTiter-Glo, 72 h), Ba/F3 EGFR exon 19del; conditions: Ba/F3 EGFR exon 19del cell growth, read-out: BaF3 Del19 IC50
EGFR exon 19del (Ba/F3 cells), sequence (P00533 with tags, fused parts or gaps DEL746-750): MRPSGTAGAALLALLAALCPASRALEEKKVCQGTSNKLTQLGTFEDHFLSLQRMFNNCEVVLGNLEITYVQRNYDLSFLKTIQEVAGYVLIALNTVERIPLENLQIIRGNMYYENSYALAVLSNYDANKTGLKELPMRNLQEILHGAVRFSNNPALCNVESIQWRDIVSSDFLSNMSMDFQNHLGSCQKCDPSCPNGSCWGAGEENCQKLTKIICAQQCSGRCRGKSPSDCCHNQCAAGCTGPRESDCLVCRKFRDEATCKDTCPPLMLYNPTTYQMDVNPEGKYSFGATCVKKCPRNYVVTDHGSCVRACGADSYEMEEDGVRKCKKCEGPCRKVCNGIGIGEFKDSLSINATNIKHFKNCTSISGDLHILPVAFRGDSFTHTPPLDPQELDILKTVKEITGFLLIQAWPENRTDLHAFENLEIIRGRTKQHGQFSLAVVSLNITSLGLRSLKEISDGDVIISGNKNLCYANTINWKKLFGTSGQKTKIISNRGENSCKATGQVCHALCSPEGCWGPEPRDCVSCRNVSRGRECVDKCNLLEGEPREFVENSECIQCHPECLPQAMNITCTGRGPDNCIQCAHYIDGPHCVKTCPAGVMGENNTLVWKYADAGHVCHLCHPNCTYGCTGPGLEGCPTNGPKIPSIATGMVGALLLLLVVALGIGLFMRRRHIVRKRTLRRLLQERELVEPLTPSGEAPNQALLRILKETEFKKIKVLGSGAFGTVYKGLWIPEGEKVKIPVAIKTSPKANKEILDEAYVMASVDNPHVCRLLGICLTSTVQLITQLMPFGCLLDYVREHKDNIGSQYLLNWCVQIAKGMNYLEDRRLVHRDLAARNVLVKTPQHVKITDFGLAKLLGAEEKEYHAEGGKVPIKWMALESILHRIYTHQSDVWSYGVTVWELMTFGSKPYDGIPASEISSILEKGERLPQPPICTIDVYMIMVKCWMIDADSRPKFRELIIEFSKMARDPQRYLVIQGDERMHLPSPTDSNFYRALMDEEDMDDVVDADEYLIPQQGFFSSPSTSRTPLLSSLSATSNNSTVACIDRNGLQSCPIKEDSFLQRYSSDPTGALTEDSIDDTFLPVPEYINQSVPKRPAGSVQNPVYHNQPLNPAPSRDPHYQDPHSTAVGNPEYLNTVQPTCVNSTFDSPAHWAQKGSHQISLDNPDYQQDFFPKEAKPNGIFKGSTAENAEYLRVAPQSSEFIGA
Text: as §1, §2, §3, §4, §5, §6, §7, §8, §9, §10, §11, §12, §13, §14, §15, §16

EGFR WT (Ba/F3 cells) = target: T2, EGFR WT (Ba/F3 cells) (Homo sapiens, UniProt P00533); test: Inhibitor activity on EGFR-dependent cell growth (CellTiter-Glo, 72 h), Ba/F3 EGFR WT; conditions: read-out: BaF3 WT IC50
T2 construct: expressed in transfected cells; host or cells: Ba/F3 (murine pro-B cells), retroviral transduction, puromycin selection, maintained with EGF
T2 sequence (P00533 25-1210): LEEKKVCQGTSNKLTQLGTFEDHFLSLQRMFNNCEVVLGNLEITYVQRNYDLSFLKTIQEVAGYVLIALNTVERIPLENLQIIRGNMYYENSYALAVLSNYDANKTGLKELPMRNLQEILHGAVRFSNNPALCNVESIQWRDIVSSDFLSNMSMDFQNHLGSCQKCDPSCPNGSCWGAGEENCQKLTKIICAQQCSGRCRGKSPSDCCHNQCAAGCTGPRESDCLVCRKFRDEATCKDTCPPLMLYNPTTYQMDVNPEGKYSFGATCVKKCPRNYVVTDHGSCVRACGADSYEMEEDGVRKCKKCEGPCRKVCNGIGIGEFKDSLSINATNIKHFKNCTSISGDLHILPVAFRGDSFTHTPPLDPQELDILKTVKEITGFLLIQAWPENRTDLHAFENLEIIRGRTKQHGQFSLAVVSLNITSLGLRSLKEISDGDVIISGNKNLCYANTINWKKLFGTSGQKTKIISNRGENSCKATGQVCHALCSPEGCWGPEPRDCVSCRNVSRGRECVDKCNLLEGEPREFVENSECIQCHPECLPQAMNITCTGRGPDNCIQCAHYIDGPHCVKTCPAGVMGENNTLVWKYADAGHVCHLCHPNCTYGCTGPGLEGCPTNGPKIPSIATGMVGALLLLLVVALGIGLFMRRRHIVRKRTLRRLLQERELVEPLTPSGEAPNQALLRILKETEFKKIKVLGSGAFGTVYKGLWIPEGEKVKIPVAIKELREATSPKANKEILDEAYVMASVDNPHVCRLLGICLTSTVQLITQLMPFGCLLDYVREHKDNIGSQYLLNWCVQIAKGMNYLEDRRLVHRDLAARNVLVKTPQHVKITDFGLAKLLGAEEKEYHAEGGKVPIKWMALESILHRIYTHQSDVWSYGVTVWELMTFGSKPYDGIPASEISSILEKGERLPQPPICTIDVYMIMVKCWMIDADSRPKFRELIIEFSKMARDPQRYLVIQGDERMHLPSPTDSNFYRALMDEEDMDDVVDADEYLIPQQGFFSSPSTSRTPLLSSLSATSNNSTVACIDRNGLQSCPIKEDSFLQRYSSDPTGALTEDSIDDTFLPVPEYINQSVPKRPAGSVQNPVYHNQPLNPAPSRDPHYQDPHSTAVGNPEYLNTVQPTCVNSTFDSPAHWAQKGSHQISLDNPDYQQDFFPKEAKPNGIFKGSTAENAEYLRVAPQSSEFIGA
Summary of the method: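 This growth assay used Ba/F3 cells that depend on wild-type EGFR and are kept in EGF without IL3. Compounds were made up as 10 mM DMSO stocks and diluted 3-fold over 10 points. 120 nL went onto 600 cells/well. After 72 hours, 40 μL CellTiter-Glo was added and luminescence read on EnVision after 30 min.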

[2] = target: T3, EGFR exon 20 NPG Ins D770_N771 (Ba/F3 cells) (Homo sapiens, UniProt P00533, INS770NPG); test: Inhibitor activity on EGFR-dependent cell growth (CellTiter-Glo, 72 h), Ba/F3 EGFR exon 20 NPG Ins; conditions: read-out: BaF3 NPG IC50
T3 construct: expressed in transfected cells; host or cells: Ba/F3 (murine pro-B cells), retroviral transduction, puromycin selection, IL3-independent pool
T3 sequence (P00533 with tags, fused parts or gaps INS770NPG): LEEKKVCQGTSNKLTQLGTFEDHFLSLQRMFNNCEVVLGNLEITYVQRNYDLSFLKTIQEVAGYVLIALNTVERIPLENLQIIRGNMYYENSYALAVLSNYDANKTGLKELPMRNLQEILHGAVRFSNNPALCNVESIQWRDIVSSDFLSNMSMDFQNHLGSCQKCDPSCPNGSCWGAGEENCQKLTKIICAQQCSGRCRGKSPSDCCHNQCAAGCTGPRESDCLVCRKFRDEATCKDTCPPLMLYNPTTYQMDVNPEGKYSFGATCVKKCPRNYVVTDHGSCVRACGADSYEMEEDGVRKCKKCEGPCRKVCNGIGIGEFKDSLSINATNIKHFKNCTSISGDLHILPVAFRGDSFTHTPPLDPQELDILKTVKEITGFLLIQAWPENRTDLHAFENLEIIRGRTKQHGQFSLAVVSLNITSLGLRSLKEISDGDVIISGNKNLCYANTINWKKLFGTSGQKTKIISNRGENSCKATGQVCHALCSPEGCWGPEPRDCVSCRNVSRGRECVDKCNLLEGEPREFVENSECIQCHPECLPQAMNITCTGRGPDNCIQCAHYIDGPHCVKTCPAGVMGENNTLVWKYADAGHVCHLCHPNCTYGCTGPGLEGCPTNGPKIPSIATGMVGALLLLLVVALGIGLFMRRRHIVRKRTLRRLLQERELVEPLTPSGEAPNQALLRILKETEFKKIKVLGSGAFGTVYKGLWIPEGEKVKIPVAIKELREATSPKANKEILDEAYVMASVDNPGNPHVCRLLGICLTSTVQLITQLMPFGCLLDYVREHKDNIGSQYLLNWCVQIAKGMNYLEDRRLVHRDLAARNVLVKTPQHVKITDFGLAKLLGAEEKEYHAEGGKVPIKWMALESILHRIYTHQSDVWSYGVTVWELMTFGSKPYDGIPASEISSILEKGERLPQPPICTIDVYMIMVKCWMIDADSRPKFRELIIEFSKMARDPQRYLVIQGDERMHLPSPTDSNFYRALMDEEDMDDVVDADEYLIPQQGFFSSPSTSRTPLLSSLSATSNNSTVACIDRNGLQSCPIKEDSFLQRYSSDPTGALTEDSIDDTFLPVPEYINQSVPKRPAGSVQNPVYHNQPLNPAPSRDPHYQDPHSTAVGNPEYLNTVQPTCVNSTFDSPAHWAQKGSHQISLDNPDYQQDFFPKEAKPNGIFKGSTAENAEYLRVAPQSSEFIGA
Summary of the method: (§17)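 IC50s derive from a sigmoidal dose–response fit of CellTiter-Glo signal. The signal was normalised between […]-treated cells and cell-free medium. Ba/F3 mutant-EGFR cells, seeded at 400–800/well depending on the line, had 72 h of exposure to a 10-point, 3-fold compound series.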

[3] = target: T4, EGFR exon 20 ASV Ins V769_D770 (Ba/F3 cells) (Homo sapiens, UniProt P00533, INS769ASV); test: Inhibitor activity on EGFR-dependent cell growth (CellTiter-Glo, 72 h), Ba/F3 EGFR exon 20 ASV Ins; conditions: read-out: BaF3 ASV IC50
T4 construct: expressed in transfected cells; host or cells: Ba/F3 (murine pro-B cells), retroviral transduction, puromycin selection, IL3-independent pool
Summary of the method: as §17

[4] = target: T5, EGFR exon 20 SVD Ins D770_N771 (Ba/F3 cells) (Homo sapiens, UniProt P00533, INS770SVD); test: Inhibitor activity on EGFR-dependent cell growth (CellTiter-Glo, 72 h), Ba/F3 EGFR exon 20 SVD Ins; conditions: read-out: BaF3 SVD IC50
T5 construct: expressed in transfected cells; host or cells: Ba/F3 (murine pro-B cells), retroviral transduction, puromycin selection, IL3-independent pool
Summary of the method: as §17

EGFR (CUTO14 cells) = EGFR (CUTO14 cells) (Homo sapiens, UniProt P00533); test: Inhibitor activity on EGFR phosphorylation (pEGFR AlphaLISA, 2 h), CUTO14 cells
EGFR (CUTO14 cells), sequence (P00533 with tags, fused parts or gaps DUP767-769): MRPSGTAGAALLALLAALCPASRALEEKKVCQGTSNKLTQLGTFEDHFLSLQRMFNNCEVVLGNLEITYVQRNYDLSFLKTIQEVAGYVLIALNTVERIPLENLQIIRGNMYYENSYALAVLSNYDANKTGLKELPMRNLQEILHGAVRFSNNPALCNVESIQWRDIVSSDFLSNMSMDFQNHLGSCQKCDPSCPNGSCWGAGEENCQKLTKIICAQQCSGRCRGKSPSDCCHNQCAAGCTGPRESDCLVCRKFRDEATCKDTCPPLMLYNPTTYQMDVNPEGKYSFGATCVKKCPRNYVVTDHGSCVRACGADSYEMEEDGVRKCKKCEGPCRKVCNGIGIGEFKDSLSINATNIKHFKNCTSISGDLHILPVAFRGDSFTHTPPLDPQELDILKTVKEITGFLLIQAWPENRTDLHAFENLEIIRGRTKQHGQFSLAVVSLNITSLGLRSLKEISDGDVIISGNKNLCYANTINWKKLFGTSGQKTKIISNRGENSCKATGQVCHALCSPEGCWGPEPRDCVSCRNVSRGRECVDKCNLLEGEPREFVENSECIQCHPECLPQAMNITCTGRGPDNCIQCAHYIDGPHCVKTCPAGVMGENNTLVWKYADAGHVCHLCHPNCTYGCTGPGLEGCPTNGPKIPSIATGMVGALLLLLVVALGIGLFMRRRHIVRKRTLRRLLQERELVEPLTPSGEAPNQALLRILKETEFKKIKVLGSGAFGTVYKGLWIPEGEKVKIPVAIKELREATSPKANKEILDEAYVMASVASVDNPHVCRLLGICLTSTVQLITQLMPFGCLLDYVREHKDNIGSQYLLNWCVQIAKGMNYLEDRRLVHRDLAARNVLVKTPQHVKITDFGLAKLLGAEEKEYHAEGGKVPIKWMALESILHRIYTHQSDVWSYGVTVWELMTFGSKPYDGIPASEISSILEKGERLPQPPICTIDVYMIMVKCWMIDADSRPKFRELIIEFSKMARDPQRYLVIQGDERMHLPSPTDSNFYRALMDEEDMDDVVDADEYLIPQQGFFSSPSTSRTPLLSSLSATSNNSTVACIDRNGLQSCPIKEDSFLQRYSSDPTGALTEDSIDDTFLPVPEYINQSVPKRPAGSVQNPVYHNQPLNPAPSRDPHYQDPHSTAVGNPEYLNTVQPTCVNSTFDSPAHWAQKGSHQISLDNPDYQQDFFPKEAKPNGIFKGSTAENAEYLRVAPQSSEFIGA
Text: Example B. Inhibitor Activity on EGFR phosphorylation (pEGFR)
EGFR mutant Ba/F3 cells were generated by transduction with retrovirus containing vectors expressing EGFR L858R, EGFR exon 19del, EGFR L858R/C797S, EGFR exon 20 NPG Ins D770_N771, EGFR exon 20 ASV Ins V769_D770, or EGFR exon 20 SVD Ins D770_N771 genes along with a puromycin selection marker. Transduced cells are selected with puromycin for 7 days and are then be transferred into culture media without Interleukin 3 (IL3). Surviving cells are confirmed to express EGFR by Western blot and maintained as a pool. CUTO14 cells were obtained from Dr. Robert C. Doebele at the University of Colorado. The IC50 date are included in Table 6 and Table 7.
as §3
1.2 Cells are diluted with culture medium to the desired density and 40 μL of cell suspension is added into each well of 384-well cell culture plate and the seeding density is 50K cells/well (Ba/F3) or 12.5K cells/well (CUTO14).
as §5, §6, §7
2.3 Transfer 5 nL of diluted compound from compound source plate into the cell plate.
2.4 After compound treatment for 2 hours, perform pEGFR detection by AlphaLISA for compound treatment plates as described in “Detection” section.
3 Detection by pEGFR AlphaLISA (Perkin-Elmer)
3.1 Plates are removed from incubators and equilibrated at room temperature for 10 minutes, and media was removed
3.2 10 μL of lysis buffer is added and plates shaken at 600 rpm for 1 hr.
3.3 Prepare acceptor mix just before use and dispense 5 μL of acceptor mix to all the wells. Shake 350 rpm for Ihr in the dark
3.4 Prepare donor mix under low light conditions prior to use. Dispense 5 μL of donor mix to all the wells. Mix well on the shaker, seal and wrap in aluminum foil and incubate 1.5 hrs at room temperature in the dark
3.5 Transfer 18.5 μL mixture to OptiPlate 384, and read using an Envision. The IC50 date were included in Table 6 and Table 7.

[5] = target: T6, EGFR exon 20 FQEA Ins A763_V764 (Ba/F3 cells) (Homo sapiens, UniProt P00533, INS763FQEA); test: Inhibitor activity on EGFR-dependent cell growth (CellTiter-Glo, 72 h), Ba/F3 EGFR exon 20 FQEA Ins; conditions: read-out: BaF3 FQEA IC50
T6 construct: expressed in transfected cells; host or cells: Ba/F3 (murine pro-B cells), retroviral transduction, puromycin selection, IL3-independent pool
Summary of the method: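 For each mutant line, growth depends on EGFR signalling in the absence of IL3. Density per well: 400 for L858R, 600 for the C797S double mutant, 800 for exon 19del and FQEA. Ten threefold dilutions were applied for 72 h. %Inhibition = 100×(DMSO − sample)/(DMSO − medium blank).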

SMILES | IC50 (EGFR L858R (Ba/F3 cells)) [µM] | IC50 [1] [µM] | IC50 (EGFR WT (Ba/F3 cells)) [µM] | IC50 [2] [µM] | IC50 [3] [µM] | IC50 [4] [µM] | IC50 (EGFR (CUTO14 cells)) [µM] | IC50 [5] [µM]
COc1c(Cl)cccc1Nc1c(-c2ccnc(C)n2)[nH]c2c(C[C@@H]3COCCO3)c[nH]c(=O)c12 [compound 655, 3-[(3-chloro-2-methoxyphenyl)amino]-7-[(2R)-1,4-dioxan-2-ylmethyl]-2-(2-methylpyrimidin-4-yl)-1H,5H-pyrrolo[3,2-c]pyridin-4-one] | < 0.1 | < 0.1 | 0.1 to 1 | < 0.1 | < 0.1 | < 0.1 | < 0.1 | 
C=CC(=O)N1CCC2(CC1)CNC(=O)c1c2[nH]c(-c2ccnc(C)n2)c1Nc1cccc(F)c1OC [compound 644] |  |  | < 0.1 | < 0.1 | < 0.1 | < 0.1 | < 0.1 | 
COc1c(Cl)cccc1Nc1c(-c2ccncc2F)[nH]c2c1C(=O)NCC2C[C@@H]1CO[C@@H](CN(C)C)CO1 (single isomer, unassigned) [Compound 562, (7R*)-3-[(3-chloro-2-methoxyphenyl)amino]-7-{[(2R,5S)-5-[(dimethylamino)methyl]-1,4-dioxan-2-yl]methyl}-2-(3-fluoropyridin-4-yl)-1H,5H,6H,7H-pyrrolo[3,2-c]pyridin-4-one] |  |  | 0.1 to 1 | < 0.1 | < 0.1 | < 0.1 | < 0.1 | 
C=CC(=O)N1CCC2(CC1)CNC(=O)c1c2[nH]c(-c2ccnc(C)n2)c1Nc1cccc(Cl)c1OC [compound 643] |  |  | < 0.1 | < 0.1 | < 0.1 | < 0.1 | < 0.1 | 
C=CC(=O)N1CCC2(CC1)CNC(=O)c1c2[nH]c(-c2ccncc2F)c1Nc1cc(F)cc(F)c1OC [compound 610] |  |  | 0.1 to 1 | < 0.1 | < 0.1 | < 0.1 | < 0.1 | 
COc1c(Cl)cccc1Nc1c(-c2ccncc2F)[nH]c2c1C(=O)NC[C@H]2C[C@@H]1COCCO1 (single isomer, unassigned) [Compound 483] | < 0.1 | < 0.1 | > 1 | < 0.1 |  |  | < 0.1 | 0.1 to 1
COc1c(Cl)cccc1Nc1c(-c2ccncc2F)[nH]c2c1C(=O)NC[C@@H]2C[C@@H]1CN(C)CCO1 [compound 790] |  |  | 0.1 to 1 | < 0.1 | < 0.1 | < 0.1 | < 0.1 | 
COc1c(Cl)cc(F)cc1Nc1c(-c2ccnc(C)n2)[nH]c2c1C(=O)NC[C@H]2C[C@@H]1COCCO1 [compound 652] |  |  | > 1 | 0.1 to 1 | 0.1 to 1 | 0.1 to 1 | < 0.1 | 
C=CC(=O)N1CCC2(CC1)CNC(=O)c1c2[nH]c(-c2ccncn2)c1Nc1cc(F)cc(F)c1OC [compound 612] |  |  | 0.1 to 1 | < 0.1 | < 0.1 | < 0.1 | < 0.1 | 
COc1c(Cl)cccc1Nc1c(-c2ccncn2)[nH]c2c(C[C@@H]3COCCO3)c[nH]c(=O)c12 [compound 656] | < 0.1 | < 0.1 | > 1 | < 0.1 | < 0.1 | < 0.1 | < 0.1 | 
COc1c(F)cccc1Nc1c(-c2ccnc(Nc3cnn(C)n3)n2)[nH]c2c1C(=O)NCC2 [compound 593, 3-[(3-fluoro-2-methoxyphenyl)amino]-2-{2-[(2-methyl-1,2,3-triazol-4-yl)amino]pyrimidin-4-yl}-1H,5H,6H,7H-pyrrolo[3,2-c]pyridin-4-one] |  |  | 0.1 to 1 | < 0.1 | < 0.1 | < 0.1 | < 0.1 | 
COc1c(Cl)cccc1Nc1c(-c2ccncc2)[nH]c2c1C(=O)NC[C@H]2C[C@@H]1CN(C)CCO1 [Compound 645, (7R)-3-[(3-chloro-2-methoxyphenyl)amino]-7-{[(2R)-4-methylmorpholin-2-yl]methyl}-2-(pyridin-4-yl)-1H,5H,6H,7H-pyrrolo[3,2-c]pyridin-4-one] |  |  | > 1 | < 0.1 | < 0.1 | < 0.1 | < 0.1 | 
C=CC(=O)N1CCC2(CC1)CNC(=O)c1c2[nH]c(-c2ccncn2)c1Nc1cccc(F)c1OC [Compound 611, 3′-[(3-fluoro-2-methoxyphenyl)amino]-1-(prop-2-enoyl)-2′-(pyrimidin-4-yl)-5′,6′-dihydro-1′H-spiro[piperidine-4,7′-pyrrolo[3,2-c]pyridin]-4′-one] | < 0.1 | < 0.1 | < 0.1 | < 0.1 | < 0.1 | < 0.1 | < 0.1 | 
COc1c(F)cccc1Nc1c(-c2ccncn2)[nH]c2c1C(=O)NCC21CCN(C(=O)/C=C/CN(C)C)CC1 [compound 650] |  |  | > 1 | 0.1 to 1 | 0.1 to 1 | 0.1 to 1 | < 0.1 | 
